Data on 22 molecules can be found in patent US20240317727A1 (Duke University, priority 2018, published 2024).

The structures appear in SMILES notation.

What is called ΔTm is the shift of the melting midpoint relative to a reference.

One assay addresses T1, recombinant HSF1 DNA-binding domain (DBD) (Homo sapiens, UniProt Q00613).
T1 sequence (Q00613 15-120): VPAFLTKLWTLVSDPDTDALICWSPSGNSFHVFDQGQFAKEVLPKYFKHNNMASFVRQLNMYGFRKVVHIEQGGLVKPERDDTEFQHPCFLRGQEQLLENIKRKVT
Nature of the assay: Differential Scanning Fluorimetry (DSF), HSF1 DBD melting temperature. The following applies: Table 1; 5 μM HSF1 DBD, 25PM Compound; positive = stabilizes, negative = destabilizes HSF1. In general terms: DSF heats the sample and reads unfolding from a dye or from intrinsic fluorescence.
As to `O=C(COc1ccc(Cl)cc1Cl)N/N=C/c1c[nH]c2ccccc12` [Compound 0098], the ΔTm at 25 µM was 4.93 °C.
As to `Cc1ccc(NC(=O)Nc2ccc(Cl)cc2)cc1` [Compound 0113, 1-(4-chlorophenyl)-3-(p-tolyl)urea], the thermal shift (ΔTm) at 25 µM is 2.28 °C.
With `O=C(Nc1ccc(Cl)cc1)Nc1ccc(Cl)cc1` [Compound 0018, 1,3-bis(4-chlorophenyl)urea], the thermal shift (ΔTm) at 25 µM was determined as 2.44 °C.
Still for that read-out and setting: under `O=C(Nc1ccc(F)cc1)Nc1ccc2nonc2c1` [Compound 0027, 1-(2,1,3-benzoxadiazol-5-yl)-3-(4-fluorophenyl)urea] stands 2.8 °C; under `O=[N+]([O-])c1cc(C(F)(F)F)cc([N+](=O)[O-])c1Oc1ccc(I)cc1` [Compound 0077], 2.5 °C.
The same measure, in the same setting: under `O=C(CSc1nnc(-c2ccccc2)n1-c1ccc(F)cc1)NCc1ccccc1` [Compound 0057] stands -10.5 °C; under `COc1cc(C(=O)Oc2c(Cl)cc(Cl)cc2/C=N\c2cccc(C(F)(F)F)c2)cc(OC)c1OC` [Compound 0070], -7.24 °C; under `O=C(Nc1ccc(F)cc1)Nc1cccc(C(F)(F)F)c1` [Compound 0003, 1-(4-fluorophenyl)-3-(3-(trifluoromethyl)phenyl)urea], 1.78 °C.
The same measure, in the same setting: under `CCOC(=O)N1CCN(C2=Nc3cc(Cl)ccc3C(C)C2)CC1` (stereo not shown) [Compound 0043] stands -9.07 °C.
As for `O=c1c(Nc2ccc(F)c(F)c2)c(Nc2ccc(Cl)c(S(=O)(=O)C(F)(F)F)c2)c1=O` [Compound 0016, 3-[4-chloro-3-(trifluoromethylsulfonyl)anilino]-4-(3,4-difluoroanilino)cyclobut-3-ene-1,2-dione], the ΔTm at 25 µM stood at 2.75 °C.
Consider `CC(=O)Nc1cc(NC(=O)Nc2ccc(F)cc2)ccc1Cl` [Compound 0095, N-[2-chloro-5-[(4-fluorophenyl)carbamoylamino]phenyl]acetamide], for which the ΔTm at 25 µM is 0.67 °C.
Consider `O=C(Nc1ccc(F)cc1)Nc1cccc([N+](=O)[O-])c1` [Compound 0076, 1-(4-fluorophenyl)-3-(3-nitrophenyl)urea], for which the ΔTm at 25 µM was -7.23 °C.

Still in this assay, the particulars now being: Table 3; 5 μM HSF1 DBD, 25PM Compound; positive = stabilizes, negative = destabilizes HSF1.
Regarding `O=C(Nc1ccc(Cl)cc1)Nc1ccc(Cl)cc1` [Compound 018, 1,3-bis(4-chlorophenyl)urea], the thermal shift (ΔTm) at 25 µM was determined as 2.44 °C.
On the same count and under the same terms, to `O=C(Nc1ccc(F)cc1)Nc1ccc(Cl)c([N+](=O)[O-])c1` [Compound 017, 1-(4-chloro-3-nitrophenyl)-3-(4-fluorophenyl)urea] belongs 3 °C.
The same measure, in the same setting: under `O=C(Nc1ccc(Cl)cc1)Nc1ccc(Cl)c([N+](=O)[O-])c1` [Compound 048, 1-(4-chloro-3-nitrophenyl)-3-(4-chlorophenyl)urea] stands 2.61 °C; under `O=C(Nc1ccc(F)cc1)Nc1ccc(Cl)c(S(=O)(=O)C(F)(F)F)c1` [Compound 054, 1-[4-chloro-3-(trifluoromethylsulfonyl)phenyl]-3-(4-fluorophenyl)urea], 2.9 °C; under `COc1ccc(NC(=O)Nc2ccc(Cl)cc2)cc1` [Compound 036, 1-(4-chlorophenyl)-3-(4-methoxyphenyl)urea], 2.61 °C.
As to `COc1ccc(NC(=O)Nc2ccc(C)cc2)cc1` [Compound 011, 1-(4-methoxyphenyl)-3-(p-tolyl)urea], the thermal shift (ΔTm) at 25 µM turned out to be 2.61 °C.
`O=C(Nc1ccccc1)Nc1cccc(Cl)c1` [Compound 091, 1-(3-chlorophenyl)-3-phenylurea]: the ΔTm at 25 µM amounted to 2.5 °C.
Consider `O=C(Nc1ccc(F)cc1)Nc1cccc(Cl)c1` [Compound 060, 1-(3-chlorophenyl)-3-(4-fluorophenyl)urea], for which the ΔTm at 25 µM is 2.5 °C.
Consider `O=C(Nc1ccc(F)cc1)Nc1cccc([N+](=O)[O-])c1` [Compound 076, 1-(4-fluorophenyl)-3-(3-nitrophenyl)urea], for which the ΔTm at 25 µM came out at 2.61 °C.
As to `O=C(Nc1cccc(F)c1)Nc1ccc(Cl)c([N+](=O)[O-])c1` [Compound 020, 1-(4-chloro-3-nitrophenyl)-3-(3-fluorophenyl)urea], the ΔTm at 25 µM was 5.2 °C.
